Assay results from PMC8151276, “An Integrated Approach toward NanoBRET Tracers for Analysis of GPCR Ligand Engagement” (Molecules, 2021).

Molecular target: T1, AGTR1 (Homo sapiens, UniProt P30556)
T1 construct: purchased Promega (in-house HiBiT-GPCR construct library, NanoBRET)
T1 sequence (P30556 1-359): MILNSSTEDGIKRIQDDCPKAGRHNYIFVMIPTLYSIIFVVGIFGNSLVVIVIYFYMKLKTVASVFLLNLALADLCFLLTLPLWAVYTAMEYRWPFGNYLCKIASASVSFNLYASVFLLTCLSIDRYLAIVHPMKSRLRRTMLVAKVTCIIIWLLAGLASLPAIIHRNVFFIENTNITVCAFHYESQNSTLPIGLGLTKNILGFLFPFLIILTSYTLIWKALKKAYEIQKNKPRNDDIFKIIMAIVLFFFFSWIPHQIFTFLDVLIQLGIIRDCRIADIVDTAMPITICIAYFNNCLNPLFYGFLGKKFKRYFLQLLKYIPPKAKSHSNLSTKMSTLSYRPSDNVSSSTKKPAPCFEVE
Test: NanoBRET screen HiBiT-AGTR1 in HEK293
Format: binding
Experimental: Each tracer candidate was screened across the entire library of HiBiT-GPCR constructs using NanoBRET as the detection modality. As depicted in Figure 4A, the specificity of interactions was evaluated through decrease in BRET due to competitive displacement of a bound tracer by excess parental compound. Each tracer was analyzed for binding to each HiBiT-GPCR fusion in the absence and in the presence of competing parental compound. Briefly, HEK293 cells were transfected with HiBiT-GPCR constructs diluted into promoterless DNA to reduce expression and maximize translocation to the cell surface. Each tracer candidate was then screened at concentrations of 1 μM and 0.1 μM across cells expressing these fusions. Cells were treated for 1.5 h with tracer either alone or in the presence of 20 μM competing parental compound (i.e., control). BRET was measured upon addition of purified LgBiT and subsequent complementation with HiBiT genetically fused to a GPCR. The specificity of interactions was assessed through a decrease in BRET signal due to competitive displacement of the bound tracer. To further gauge the robustness of these interactions, the fold response over the control (i.e., BRETtracer/BRETcontrol) was calculated. We chose a 1.5-fold response, which translates to ≥7-fold signal over noise as the minimal threshold required to score an interaction as positive. […]. Below we highlight the screening results obtained for our exemplary fluorescent tracers based on Clozapine, Amitriptyline and AZD1283.
HiBiT-GPCR DNA constructs were diluted in 10 mM Tris pH 8 to a final concentration of 0.01 μg/μL, arrayed in 96-well plates and stored at −20 °C. For transfection, HEK293 cells were suspended in Opti-MEM (without phenol red) supplemented with 2% fetal bovine serum (Seradigm) and 100 units/mL penicillin–streptomycin (Gibco) at a final concentration of 220,000 cells/mL and dispensed into white 96-well plates at 90 μL/well. Subsequent transfections and screens were carried using an Agilent Bravo Automated Liquid Handling Platform. First, the 96-well HiBiT DNA arrays were diluted 25-fold in Opti-MEM (without serum or phenol red) to a final concentration of 0.0004 μg/μL and 20 μL of the diluted DNAs were transferred into new 96-well plates. Next, promoterless carrier DNA (1 μg/μL) was diluted 25-fold (0.04 μg/μL) and then dispensed into the diluted arrays at 20 μL/well. Following brief mixing, Viafect transfection reagent (Promega) diluted 16-fold into Opti-MEM was dispensed into the plates at 40 μL/well. After mixing by pipetting, plates were incubated for 10 min on the pipetting station deck. The DNA-transfection reagent complexes were then added to plates containing cells. To facilitate the screen, 10 μL of DNA-transfection reagent complexes were added in duplicates to the top 4 and bottom 4 rows, resulting in two identical 48-well arrays per plate. Plates with transfected cells were incubated for 18–20 h at 37 °C/5% CO2. A screen of each tracer across the entire library using two different concentrations requires duplicate plates of transfected cells. Depending on the number of tracers being screened, transfections can be scaled up using the same ratios. The next day, for each tracer, four 20× screening solutions in tracer dilution buffer (Promega) were prepared: two duplicates at final concentration of 20 μM and two duplicates at a final concentration of 2 μM. A competing unmodified compound was added to one of each duplicate at a final concentration of 400 μM. The four resulting solutions were diluted 4-fold in Opti-MEM without serum or phenol red to generate 5× solutions (5 µM and 0.5 µM tracer +/− 100 μM competing compound). To screen the library, a BioTek MultiFlo FX liquid dispenser was used to dispense 22.5 µL of tracer solution to the top 4 rows and 22.5 µL tracer + competing compound solution to the 4 bottom rows. Plates were briefly mixed on an orbital shaker and incubated for 1.5 h at room temperature. […]

Row | SMILES | NanoBRET Fold Response (AGTR1, tracer 0.1μM) | NanoBRET Fold Response (AGTR1, tracer 1μM) | further results
1 | CCOC(=O)c1cc(C#N)c(N2CCC(C(=O)NS(=O)(=O)Cc3ccccc3/C=C/C(=O)NCCNC(=O)CCc3ccc4n3[B-](F)(F)[N+]3=C(c5ccc[nH]5)C=CC3=C4)CC2)nc1C [AZD1283-1-NB590] | – | – | NanoBRET Fold Response (AGTR1, 0.1μM): 1.01; NanoBRET Fold Response (AGTR1, 1μM): 1.05
2 | N#CN=C(NCCCOc1cccc(CN2CCCCC2)c1)NCCNC(=O)CCOCCOCCOCCOCCNC(=O)CCc1ccc2n1[B-](F)(F)[N+]1=C(c3ccc[nH]3)C=CC1=C2 [Aminopotentidine-2-NB590] | 1.00 | 0.96 | –
3 | CN(C)CCC=C1c2ccccc2CCc2ccc(C(=O)NCCNC(=O)CCOCCOCCOCCOCCNC(=O)CCc3ccc4n3[B-](F)(F)[N+]3=C(c5ccc[nH]5)C=CC3=C4)cc21 [Amitriptyline-a-2-NB590] | – | – | NanoBRET Fold Response (tracer at 0.1μM): 1.04; NanoBRET Fold Response (tracer at 1μM): 1.00
4 | CN(C)CCC=C1c2ccccc2CCc2ccc(C(=O)NCCNC(=O)CCOCCOCCOCCOCCNC(=O)CCc3ccc4n3[B-](F)(F)[N+]3=C(c5ccc[nH]5)C=CC3=C4)cc21 [Amitriptyline-b-2-NB590] | – | – | NanoBRET Fold Response (tracer at 0.1μM, listed as amitriptyline-b-2-NB590): 1.12; NanoBRET Fold Response (tracer at 1μM, listed as amitriptyline-b-2-NB590): 0.81
5 | CN(CCC=C1c2ccccc2CCc2ccccc21)C(=O)CCOCCOCCOCCOCCNC(=O)CCc1ccc2n1[B-](F)(F)[N+]1=C(c3ccc[nH]3)C=CC1=C2 [Amitriptyline-e-2-NB590] | – | – | NanoBRET Fold Response (tracer at 1μM): 1.02
6 | COc1ccc2c(n1)c(CCNC(C)=O)cn2CCNC(=O)CCc1ccc2n1[B-](F)(F)[N+]1=C(c3ccc[nH]3)C=CC1=C2 [Azamelatonin-1-NB590] | – | – | NanoBRET Fold Response (0.1μM tracer): 0.78; NanoBRET Fold Response (1μM tracer): 1.07
7 | COc1ccc2[nH]c(-c3ccc(CNC(=O)CCOCCOCCOCCOCCNC(=O)CCc4ccc5n4[B-](F)(F)[N+]4=C(c6ccc[nH]6)C=CC4=C5)cc3)c(CCNC(C)=O)c2n1 [AzomelatoninICO9-2-NB590] | – | – | NanoBRET Fold Response (0.1μM tracer): 0.91; NanoBRET Fold Response (1μM tracer): 0.94
8 | O=C(CCOCCOCCOCCOCCNC(=O)CCc1ccc2n1[B-](F)(F)[N+]1=C(c3ccc[nH]3)C=CC1=C2)NCCCN1CCN(C2=Nc3cc(Cl)ccc3Nc3ccccc32)CC1 [Clozapine-a-2-NB590] | – | – | NanoBRET Fold Response (AGTR1, 0.1μM tracer): 0.96; NanoBRET Fold Response (AGTR1, 1μM tracer): 1.05
9 | CN1CCN(C2=Nc3cc(Cl)ccc3Nc3ccc(CNC(=O)CCOCCOCCOCCOCCNC(=O)CCc4ccc5n4[B-](F)(F)[N+]4=C(c6ccc[nH]6)C=CC4=C5)cc32)CC1 [Clozapine-b-2-NB590] | – | – | NanoBRET Fold Response (AGTR1, 0.1μM tracer): 1.01; NanoBRET Fold Response (AGTR1, 1μM tracer): 1.06
10 | CN1CCN(C2=Nc3cc(Cl)ccc3N(CC(=O)NCCOCCOCCOCCOCCNC(=O)CCc3ccc4n3[B-](F)(F)[N+]3=C(c5ccc[nH]5)C=CC3=C4)c3ccccc32)CC1 [Clozapine-c-2-NB590] | – | – | NanoBRET Fold Response (AGTR1, 0.1μM tracer): 0.98; NanoBRET Fold Response (AGTR1, 1μM tracer): 0.93
11 | O=C(CCOCCOCCOCCOCCNC(=O)CCc1ccc2n1[B-](F)(F)[N+]1=C(c3ccc[nH]3)C=CC1=C2)NCCCN1CCN(C2=Nc3ccccc3Oc3ccc(Cl)cc32)CC1 [Loxapine-a-2-NB590] | 0.96 | 1.08 | –
12 | COc1ccccc1N1CCN(CCCCN2C(=O)c3ccc(CNC(=O)CCOCCOCCOCCOCCNC(=O)CCc4ccc5n4[B-](F)(F)[N+]4=C(c6ccc[nH]6)C=CC4=C5)cc3C2=O)CC1 [NAN-190-2-NB590] | 1.04 | 1.11 | –
13 | COc1ccccc1N1CCN(CCCCN2C(=O)c3ccc(CNC(=O)CCOCCNC(=O)c4ccc(CNC(=O)CCc5ccc6n5[B-](F)(F)[N+]5=C(c7ccc[nH]7)C=CC5=C6)cc4)cc3C2=O)CC1 [NAN-190-3-NB590] | 0.92 | 1.04 | –
14 | O=C(CCc1ccc2n1[B-](F)(F)[N+]1=C(c3ccc[nH]3)C=CC1=C2)NCc1ccc(C(=O)NCCOCCC(=O)N[C@@H]2CC[C@@]3(O)[C@H]4Cc5ccc(O)c6c5[C@@]3(CCN4CC3CC3)[C@H]2O6)cc1 [Naltrexone-3-NB590] | 1.07 | 0.93 | –
15 | Cc1cc2c(s1)Nc1ccccc1N=C2N1CCN(CCCNC(=O)CCOCCOCCOCCOCCNC(=O)CCc2ccc3n2[B-](F)(F)[N+]2=C(c4ccc[nH]4)C=CC2=C3)CC1 [Olanzapine-a-2-NB590] | 0.94 | 0.95 | –
16 | O=C(CCc1ccc2n1[B-](F)(F)[N+]1=C(c3ccc[nH]3)C=CC1=C2)NCc1ccc(C(=O)NCCOCCOCCNCC(O)COc2cccc3ccccc23)cc1 (centres unmarked) [Propranolol-3-NB590] | – | – | NanoBRET Fold Response (AGTR1, 0.1μM): 1.04; NanoBRET Fold Response (AGTR1, 1μM): 1.07
17 | O=C(CCc1ccc2n1[B-](F)(F)[N+]1=C(c3ccc[nH]3)C=CC1=C2)NCCOCCOCCNC(=O)OCCOCCN1CCN(C2=Nc3ccccc3Sc3ccccc32)CC1 [Quetiapine-a-2-NB590] | 1.00 | 0.92 | –
18 | Cc1nc2n(c(=O)c1CCN1CCC(c3noc4cc(F)ccc34)CC1)CCCC2OC(=O)NCCOCCOCCOCCOCCNC(=O)CCc1ccc2n1[B-](F)(F)[N+]1=C(c3ccc[nH]3)C=CC1=C2 (centres unmarked) [Risperidone-2-NB590] | 0.99 | 0.98 | –
19 | CC(C)N(CC[C@H](c1ccccc1)c1cc(CCNC(=O)CCOCCOCCOCCOCCNC(=O)CCc2ccc3n2[B-](F)(F)[N+]2=C(c4ccc[nH]4)C=CC2=C3)ccc1O)C(C)C [Tolterodine-2-NB590] | 1.12 | 1.00 | –
20 | CC(C)N(CC[C@H](c1ccccc1)c1cc(CCNC(=O)c2ccc(CNC(=O)CCc3ccc4n3[B-](F)(F)[N+]3=C(c5ccc[nH]5)C=CC3=C4)cc2)ccc1O)C(C)C [Tolterodine-BZ-NB590] | 1.06 | 1.00 | –
21 | CCCn1c(=O)c2[nH]c(-c3ccc(OCC(=O)NCCNC(=O)CCOCCNC(=O)c4ccc(CNC(=O)CCc5ccc6n5[B-](F)(F)[N+]5=C(c7ccc[nH]7)C=CC5=C6)cc4)cc3)nc2n(CCC)c1=O [XAC-3-NB590] | 1.24 | 1.19 | –
